Results reported in patent publication US10544147B2, “Purine inhibitors of human phosphatidylinositol 3-kinase delta” (MERCK SHARP & DOHME CORP., priority 2016, dated 2020).

How the values were obtained:
PI3Kdelta = PI3Kdelta (Homo sapiens (Human), UniProt O00329); test: HTRF PI3K biochemical assay, delta isoform; settings: 0.3 nM enzyme, 100 uM ATP, 50 uM PIP2; form screened (neutral or TFA salt)
PI3Kalpha = PI3Kalpha (Homo sapiens (Human), UniProt P42336); test: HTRF PI3K biochemical assay, alpha isoform (selectivity versus delta); settings: ratio PI3K-alpha IC50 value/PI3K-delta IC50 value
Chain of PI3Kalpha (P42336 whole entry, canonical isoform): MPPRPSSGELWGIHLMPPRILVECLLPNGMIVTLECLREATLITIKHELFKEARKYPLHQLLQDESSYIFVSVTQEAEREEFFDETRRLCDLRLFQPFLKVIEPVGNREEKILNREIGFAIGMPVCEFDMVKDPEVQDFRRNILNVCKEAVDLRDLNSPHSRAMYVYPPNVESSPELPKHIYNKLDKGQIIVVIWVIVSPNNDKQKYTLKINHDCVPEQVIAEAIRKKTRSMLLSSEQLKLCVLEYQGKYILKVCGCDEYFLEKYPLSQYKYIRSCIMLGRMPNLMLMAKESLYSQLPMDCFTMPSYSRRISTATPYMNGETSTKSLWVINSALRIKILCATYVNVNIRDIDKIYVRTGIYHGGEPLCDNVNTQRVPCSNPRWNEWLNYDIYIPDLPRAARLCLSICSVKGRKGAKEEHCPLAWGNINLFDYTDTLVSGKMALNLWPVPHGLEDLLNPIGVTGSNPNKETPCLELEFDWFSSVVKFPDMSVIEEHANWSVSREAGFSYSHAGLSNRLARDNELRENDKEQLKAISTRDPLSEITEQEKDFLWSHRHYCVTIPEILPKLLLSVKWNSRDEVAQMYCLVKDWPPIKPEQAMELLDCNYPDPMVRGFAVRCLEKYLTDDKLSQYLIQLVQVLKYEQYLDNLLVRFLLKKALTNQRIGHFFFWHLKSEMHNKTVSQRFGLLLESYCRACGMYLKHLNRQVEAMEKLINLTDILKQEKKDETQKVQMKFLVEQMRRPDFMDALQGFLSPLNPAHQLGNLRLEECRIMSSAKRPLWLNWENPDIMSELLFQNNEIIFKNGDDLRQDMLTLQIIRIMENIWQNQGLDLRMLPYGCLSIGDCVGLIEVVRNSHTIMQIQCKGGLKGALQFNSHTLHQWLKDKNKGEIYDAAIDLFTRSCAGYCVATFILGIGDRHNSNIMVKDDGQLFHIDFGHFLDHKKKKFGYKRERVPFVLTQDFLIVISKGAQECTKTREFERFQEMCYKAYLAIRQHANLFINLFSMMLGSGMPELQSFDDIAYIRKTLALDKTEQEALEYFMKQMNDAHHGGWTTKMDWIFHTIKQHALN
Chain of PI3Kalpha (P27986 whole entry partner, canonical isoform): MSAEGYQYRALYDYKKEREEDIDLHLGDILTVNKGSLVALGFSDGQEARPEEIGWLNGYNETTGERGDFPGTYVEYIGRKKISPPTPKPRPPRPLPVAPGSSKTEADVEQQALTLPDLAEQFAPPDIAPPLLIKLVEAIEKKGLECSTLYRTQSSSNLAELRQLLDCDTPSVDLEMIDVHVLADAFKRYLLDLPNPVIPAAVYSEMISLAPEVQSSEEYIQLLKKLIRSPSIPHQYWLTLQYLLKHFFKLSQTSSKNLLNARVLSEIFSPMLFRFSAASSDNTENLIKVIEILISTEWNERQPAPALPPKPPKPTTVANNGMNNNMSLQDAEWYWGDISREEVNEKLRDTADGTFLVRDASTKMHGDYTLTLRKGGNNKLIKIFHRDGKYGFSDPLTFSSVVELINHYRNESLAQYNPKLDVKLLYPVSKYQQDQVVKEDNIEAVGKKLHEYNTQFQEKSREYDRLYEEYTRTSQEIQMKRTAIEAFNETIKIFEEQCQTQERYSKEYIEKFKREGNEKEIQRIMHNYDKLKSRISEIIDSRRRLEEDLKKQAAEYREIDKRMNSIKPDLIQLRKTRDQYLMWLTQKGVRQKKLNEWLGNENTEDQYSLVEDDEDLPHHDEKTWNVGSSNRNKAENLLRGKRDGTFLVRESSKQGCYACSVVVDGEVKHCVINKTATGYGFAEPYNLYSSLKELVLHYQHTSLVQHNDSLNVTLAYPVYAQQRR

Chain of PI3Kdelta (O00329 whole entry, canonical isoform): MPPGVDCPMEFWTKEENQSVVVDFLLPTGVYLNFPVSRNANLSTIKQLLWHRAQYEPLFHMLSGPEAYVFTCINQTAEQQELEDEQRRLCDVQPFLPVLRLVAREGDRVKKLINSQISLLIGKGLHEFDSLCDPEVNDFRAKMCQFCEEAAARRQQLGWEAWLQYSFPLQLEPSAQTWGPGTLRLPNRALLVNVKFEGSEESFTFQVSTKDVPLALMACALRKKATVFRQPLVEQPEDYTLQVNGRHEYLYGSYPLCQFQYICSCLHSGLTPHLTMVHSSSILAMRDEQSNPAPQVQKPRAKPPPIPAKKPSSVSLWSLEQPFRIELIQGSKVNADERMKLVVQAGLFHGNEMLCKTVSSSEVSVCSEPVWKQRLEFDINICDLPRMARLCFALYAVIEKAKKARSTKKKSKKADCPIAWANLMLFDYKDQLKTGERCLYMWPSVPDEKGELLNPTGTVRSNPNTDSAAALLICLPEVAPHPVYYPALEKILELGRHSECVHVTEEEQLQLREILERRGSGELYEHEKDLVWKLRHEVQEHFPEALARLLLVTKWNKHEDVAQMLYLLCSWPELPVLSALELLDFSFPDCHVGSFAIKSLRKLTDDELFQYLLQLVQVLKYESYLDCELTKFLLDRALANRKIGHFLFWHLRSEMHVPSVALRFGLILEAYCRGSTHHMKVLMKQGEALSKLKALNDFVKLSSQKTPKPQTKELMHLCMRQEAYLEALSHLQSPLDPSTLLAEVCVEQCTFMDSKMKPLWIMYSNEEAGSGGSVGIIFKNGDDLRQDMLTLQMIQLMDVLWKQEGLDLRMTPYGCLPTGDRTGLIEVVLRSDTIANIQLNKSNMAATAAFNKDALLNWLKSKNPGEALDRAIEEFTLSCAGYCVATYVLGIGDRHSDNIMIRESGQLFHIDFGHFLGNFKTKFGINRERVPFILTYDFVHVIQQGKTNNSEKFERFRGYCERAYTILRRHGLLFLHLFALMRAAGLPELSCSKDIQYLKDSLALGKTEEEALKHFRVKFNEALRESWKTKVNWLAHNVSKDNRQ
Chain of PI3Kdelta (P27986 whole entry partner, canonical isoform): as the sequence (P27986 whole entry partner, canonical isoform) above

| IC50 (PI3Kdelta) [nM] | Relative Selectivity versus PI3Kalpha (PI3Kalpha) | SMILES |
| --- | --- | --- |
| 42 | >10 | CCn1c(-c2cnc(C)nc2)nc2c(-c3ccc4oc(=O)n(C(C)C5CC5)c4c3)ncnc21 (single isomer, unassigned) [Compound 5-5, (R or S)-3-(1-cyclopropylethyl)-5-[9-ethyl-8-(2-methylpyrimidin-5-yl)-9H-purin-6-yl]-1,3-benzoxazol-2(3H)-one] |
| 5 | >10 | CCn1c(-c2cnc(C)nc2)nc2c(-c3ccc4oc(=O)n(C(C)C5CC5)c4c3)ncnc21 (single isomer, unassigned) [Compound 5-6, (R or S)-3-(1-cyclopropylethyl)-5-[9-ethyl-8-(2-methylpyrimidin-5-yl)-9H-purin-6-yl]-1,3-benzoxazol-2(3H)-one] |
| 3 | >10 | CCn1c(-c2cnc(C)nc2)nc2c(-c3ccc4[nH]c(=O)n(C(C)C5CC5)c4c3)ncnc21 (single isomer, unassigned) [Compound 5-7, (R or S)-1-(1-cyclopropylethyl)-6-[9-ethyl-8-(2-methylpyrimidin-5-yl)-9H-purin-6-yl]-1,3-dihydro-2H-benzimidazol-2-one] |
| 24 | >10 | CCn1c(-c2cnc(C)nc2)nc2c(-c3ccc4[nH]c(=O)n(C(C)C5CC5)c4c3)ncnc21 (single isomer, unassigned) [Compound 5-8, (R or S)-1-(1-cyclopropylethyl)-6-[9-ethyl-8-(2-methylpyrimidin-5-yl)-9H-purin-6-yl]-1,3-dihydro-2H-benzimidazol-2-one] |
| 151 | >10 | CCn1c(-c2cnc(C)nc2)nc2c(-c3ccc4oc(=O)n(C5CCOCC5)c4c3)ncnc21 [Compound 5-9, 5-(9-ethyl-8-(2-methylpyrimidin-5-yl)-9H-purin-6-yl)-3-(tetrahydro-2H-pyran-4-yl)benzo[d]oxazol-2(3H)-one] |
